Results as given in patent publication US20260297070A1, “CYCLIC [COMPOUND LEFT OUT] WRN INHIBITORS” (Nimbus Wadjet, Inc., priority 2023, published 2026).

molecular target: T1, human Werner helicase (WRN-BV08, Uniprot Q14191, amino acids 517-1235 with L1074F point mutation) (Homo sapiens, UniProt Q14191, L1074F); test: WRN (BV08) ADP-Glo Assay; type: biochemical; conditions: 0.15 nM WRN, 5 μM ATP, 0.1 nM DNA duplex, 15 min preincubation, 60 min at 25° C., pH 7.5, 1% DMSO; read-out: ADP-Glo_hWRN_IC50
T1 construct: Uniprot Q14191, amino acids 517-1235 with L1074F point mutation; TEV-cleavable 8×His (C, cleaved yes); made in house; host or cells: Sf9 insect cells (baculovirus)
T1 sequence (Q14191 with tags, fused parts or gaps L1074F limits assumed): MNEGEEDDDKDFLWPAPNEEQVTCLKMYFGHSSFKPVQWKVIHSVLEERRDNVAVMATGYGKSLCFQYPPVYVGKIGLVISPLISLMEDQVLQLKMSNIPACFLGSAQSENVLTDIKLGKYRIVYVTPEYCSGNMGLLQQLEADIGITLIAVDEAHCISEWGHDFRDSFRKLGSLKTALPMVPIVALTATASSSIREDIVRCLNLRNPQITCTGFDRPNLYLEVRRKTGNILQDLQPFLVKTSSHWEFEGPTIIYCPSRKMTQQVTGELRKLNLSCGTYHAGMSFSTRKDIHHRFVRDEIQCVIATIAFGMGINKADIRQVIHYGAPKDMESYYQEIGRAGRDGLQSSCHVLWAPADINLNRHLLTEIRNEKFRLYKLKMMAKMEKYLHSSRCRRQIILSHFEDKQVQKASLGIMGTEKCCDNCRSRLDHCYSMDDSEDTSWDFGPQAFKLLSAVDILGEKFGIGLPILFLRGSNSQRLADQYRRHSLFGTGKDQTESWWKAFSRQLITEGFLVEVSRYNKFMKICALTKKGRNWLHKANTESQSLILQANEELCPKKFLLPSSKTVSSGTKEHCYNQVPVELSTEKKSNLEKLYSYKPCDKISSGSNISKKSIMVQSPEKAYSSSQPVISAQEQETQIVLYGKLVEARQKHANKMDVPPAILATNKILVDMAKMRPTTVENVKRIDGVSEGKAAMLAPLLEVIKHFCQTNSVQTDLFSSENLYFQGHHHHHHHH
How it was run: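 Percent inhibition was normalised to DMSO (max) and 20 μM NSC-617145 (min) controls from ADP-Glo luminescence, and IC50 values came from a four-parameter fit. The reaction ran 60 min at 25 °C with 0.15 nM WRN, 5 μM ATP and 0.1 nM duplex DNA.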

IC50 [µM] | Compound
> 50 | Cn1cc(CN(C(=O)Cc2ccc(-n3cccc3)cc2)C2C=CS(=O)(=O)C2)cn1 (centres unmarked) [I-481, N-(1,1-dioxo-2,3-dihydro-1lambda6-thiophen-3-yl)-N-[(1-methyl-1H-pyrazol-4-yl)methyl]-2-[4-(1H-pyrrol-1-yl)phenyl]acetamide]
5 to 10 | O=C1Nc2cc(C(F)(F)F)ccc2SC1CC(=O)N(Cc1ccncc1)C1C=CS(=O)(=O)C1 (centres unmarked) [I-231, N-(1,1-dioxo-2,3-dihydro-1lambda6-thiophen-3-yl)-2-[3-oxo-6-(trifluoromethyl)-3,4-dihydro-2H-1,4-benzothiazin-2-yl]-N-[(pyridin-4-yl)methyl]acetamide]
10 to 50 | CN(C)C(C(=O)N(Cc1ccnc(C(C)(C)O)c1)C1C=CS(=O)(=O)C1)c1ccc(-c2ccc(F)c(F)c2)cc1F (centres unmarked) [I-307, 2-(dimethylamino)-N-(1,1-dioxo-2,3-dihydro-1lambda6-thiophen-3-yl)-N-{[2-(2-hydroxypropan-2-yl)pyridin-4-yl]methyl}-2-{3,3′,4′-trifluoro-[1,1′-biphenyl]-4-yl}acetamide]
10 to 50 | O=C(Cc1ccc(-n2ccc3ccccc32)cc1)N(Cc1ccncc1)C1C=CS(=O)(=O)C1 (centres unmarked) [I-305, N-(1,1-dioxo-2,3-dihydro-1lambda6-thiophen-3-yl)-2-[4-(1H-indol-1-yl)phenyl]-N-[(pyridin-4-yl)methyl]acetamide]
> 50 | COc1ccc(CC(=O)N(Cc2ccncc2)C2C=CS(=O)(=O)C2)cc1OC(F)F (centres unmarked) [I-697, 2-[3-(difluoromethoxy)-4-methoxyphenyl]-N-(1,1-dioxo-2,3-dihydro-1lambda6-thiophen-3-yl)-N-[(pyridin-4-yl)methyl]acetamide]
< 0.5 | COc1cc(C(C)N(C(=O)Cn2cc(-c3cc(F)c(F)c(F)c3)cn2)C2C=CS(=O)(=O)C2)ccn1 (centres unmarked) [I-820, N-(1,1-dioxo-2,3-dihydro-1lambda6-thiophen-3-yl)-N-[1-(2-methoxypyridin-4-yl)ethyl]-2-[4-(3,4,5-trifluorophenyl)-1H-pyrazol-1-yl]acetamide]
> 50 | O=C(C1CC(C(F)(F)F)CO1)N(Cc1ccncc1)C1C=CS(=O)(=O)C1 (centres unmarked) [I-651, N-(1,1-dioxo-2,3-dihydro-1lambda6-thiophen-3-yl)-N-[(pyridin-4-yl)methyl]-4-(trifluoromethyl)oxolane-2-carboxamide]
0.5 to 5 | Cc1cccn1-c1ccc(CC(=O)N(Cc2ccc(Br)cc2)C2C=CS(=O)(=O)C2)c(F)c1 (centres unmarked) [I-100, N-[(4-bromophenyl)methyl]-N-(1,1-dioxo-2,3-dihydro-1lambda6-thiophen-3-yl)-2-[2-fluoro-4-(2-methyl-1H-pyrrol-1-yl)phenyl]acetamide]
> 50 | O=C([C@H]1[C@@H]2CCC[C@@H]21)N(Cc1ccncc1)C1C=CS(=O)(=O)C1 (stereo partly drawn) [I-583, (1R,5S,6R)-N-(1,1-dioxo-2,3-dihydro-1lambda6-thiophen-3-yl)-N-[(pyridin-4-yl)methyl]bicyclo[3.1.0]hexane-6-carboxamide]
0.5 to 5 | O=C(Cc1ccc(-c2cc(F)cc(F)c2)cc1)N(Cc1ccncc1)C1C=CS(=O)(=O)C1 (centres unmarked) [I-166, 2-{3′,5′-difluoro-[1,1′-biphenyl]-4-yl}-N-(1,1-dioxo-2,3-dihydro-1lambda6-thiophen-3-yl)-N-[(pyridin-4-yl)methyl]acetamide]

More lines, now with the values behind:

Compound | IC50 [µM]
Cc1cccn1-c1ccc(CC(=O)N(Cc2ccnc3c2CCC3(C)O)C2C=CS(=O)(=O)C2)c(F)c1 (centres unmarked) [I-78, N-(1,1-dioxo-2,3-dihydro-1lambda6-thiophen-3-yl)-2-[2-fluoro-4-(2-methyl-1H-pyrrol-1-yl)phenyl]-N-({7-hydroxy-7-methyl-5H,6H,7H-cyclopenta[b]pyridin-4-yl}methyl)acetamide] | < 0.5
COCc1cc(-c2ccc(F)cc2)ccc1CC(=O)N(Cc1ccncc1)C1C=CS(=O)(=O)C1 (centres unmarked) [I-376, N-(1,1-dioxo-2,3-dihydro-1lambda6-thiophen-3-yl)-2-[4′-fluoro-3-(methoxymethyl)-[1,1′-biphenyl]-4-yl]-N-[(pyridin-4-yl)methyl]acetamide] | > 50
COC(C(=O)N(Cc1ccnc(C(C)(C)O)c1)C1C=CS(=O)(=O)C1)c1ccc(-c2ccc(F)cc2)cc1F (single isomer, unassigned) [I-10, (2R*)-2-{3,4′-difluoro-[1,1′-biphenyl]-4-yl}-N-[(3R**)-1,1-dioxo-2,3-dihydro-1lambda6-thiophen-3-yl]-N-{[2-(2-hydroxypropan-2-yl)pyridin-4-yl]methyl}-2-methoxyacetamide] | < 0.5
O=C(Cc1ccc(S(F)(F)(F)(F)F)cc1)N(Cc1cc(C2CC2)no1)C1C=CS(=O)(=O)C1 (centres unmarked) [I-624, N-[(3-cyclopropyl-1,2-oxazol-5-yl)methyl]-N-(1,1-dioxo-2,3-dihydro-1lambda6-thiophen-3-yl)-2-[4-(pentafluoro-lambda6-sulfanyl)phenyl]acetamide] | 0.5 to 5
O=C(Cc1ccc(-n2cccc2)cc1)N(Cc1nc(C(F)(F)F)cs1)C1C=CS(=O)(=O)C1 (centres unmarked) [I-145, N-(1,1-dioxo-2,3-dihydro-1lambda6-thiophen-3-yl)-2-[4-(1H-pyrrol-1-yl)phenyl]-N-{[4-(trifluoromethyl)-1,3-thiazol-2-yl]methyl}acetamide] | 0.5 to 5
CN(C)C(=O)C(C(=O)N(Cc1ccncc1)C1C=CS(=O)(=O)C1)c1ccc(-c2ccc(F)cc2)cc1 (single isomer, unassigned) [I-375, (2R**)-N′-[(3R*)-1,1-dioxo-2,3-dihydro-1lambda6-thiophen-3-yl]-2-{4′-fluoro-[1,1′-biphenyl]-4-yl}-N,N-dimethyl-N′-[(pyridin-4-yl)methyl]propanediamide] | > 50
O=C(Cc1ccc(-n2cccc2)cc1)N(Cc1ccccc1N1CCC(O)C1)C1C=CS(=O)(=O)C1 (centres unmarked) [I-372, N-(1,1-dioxo-2,3-dihydro-1lambda6-thiophen-3-yl)-N-{[2-(3-hydroxypyrrolidin-1-yl)phenyl]methyl}-2-[4-(1H-pyrrol-1-yl)phenyl]acetamide] | > 50
O=C(Cc1ccc(-c2cccc(F)c2F)cc1)N(Cc1ccncc1)C1C=CS(=O)(=O)C1 (centres unmarked) [I-261, 2-{2′,3′-difluoro-[1,1′-biphenyl]-4-yl}-N-(1,1-dioxo-2,3-dihydro-1lambda6-thiophen-3-yl)-N-[(pyridin-4-yl)methyl]acetamide] | 5 to 10
O=C(Cn1cc(-c2ccc(F)c(F)c2)cn1)N(Cc1nc(C2(F)CC2)cs1)C1C=CS(=O)(=O)C1 (centres unmarked) [I-726, 2-[4-(3,4-difluorophenyl)-1H-pyrazol-1-yl]-N-(1,1-dioxo-2,3-dihydro-1lambda6-thiophen-3-yl)-N-{[4-(1-fluorocyclopropyl)-1,3-thiazol-2-yl]methyl}acetamide] | < 0.5
O=C(C1CCCN(c2ccccc2)C1)N(Cc1ccncc1)C1C=CS(=O)(=O)C1 (centres unmarked) [I-539, N-(1,1-dioxo-2,3-dihydro-1lambda6-thiophen-3-yl)-1-phenyl-N-[(pyridin-4-yl)methyl]piperidine-3-carboxamide] | > 50
O=C(Cc1ccc(-n2cccc2)cc1)N(Cc1ccc2cc[nH]c2c1)C1C=CS(=O)(=O)C1 (centres unmarked) [I-499, N-(1,1-dioxo-2,3-dihydro-1lambda6-thiophen-3-yl)-N-[(1H-indol-6-yl)methyl]-2-[4-(1H-pyrrol-1-yl)phenyl]acetamide] | > 50
O=C(Cc1ccc(-n2cccc2)cc1)N(Cc1ccc2nccnc2c1)C1C=CS(=O)(=O)C1 (centres unmarked) [I-251, N-(1,1-dioxo-2,3-dihydro-1lambda6-thiophen-3-yl)-2-[4-(1H-pyrrol-1-yl)phenyl]-N-[(quinoxalin-6-yl)methyl]acetamide] | 5 to 10
O=C(Cc1ccn(-c2ccccc2)n1)N(Cc1ccncc1)C1C=CS(=O)(=O)C1 (centres unmarked) [I-390, N-(1,1-dioxo-2,3-dihydro-1lambda6-thiophen-3-yl)-2-(1-phenyl-1H-pyrazol-3-yl)-N-[(pyridin-4-yl)methyl]acetamide] | > 50
CC(C)(O)c1cc(CN(C(=O)C2Cc3cc(S(F)(F)(F)(F)F)ccc3O2)[C@@H]2C=CS(=O)(=O)C2)ccn1 (single isomer, unassigned) [I-730] | < 0.5
O=C(Cc1ccc(C(F)(F)F)cc1)N(Cc1ccncc1)C1C=CS(=O)(=O)C1 (centres unmarked) [I-254, N-(1,1-dioxo-2,3-dihydro-1lambda6-thiophen-3-yl)-N-[(pyridin-4-yl)methyl]-2-[4-(trifluoromethyl)phenyl]acetamide] | 5 to 10
O=C(Cn1nnc2ccccc21)N(Cc1ccncc1)C1C=CS(=O)(=O)C1 (centres unmarked) [I-492, 2-(1H-1,2,3-benzotriazol-1-yl)-N-(1,1-dioxo-2,3-dihydro-1lambda6-thiophen-3-yl)-N-[(pyridin-4-yl)methyl]acetamide] | > 50
COc1cc(CN(C(=O)Cc2ccc(-c3ccc(F)cc3)cc2Cl)C2C=CS(=O)(=O)C2)ccn1 (centres unmarked) [I-136, 2-{3-chloro-4′-fluoro-[1,1′-biphenyl]-4-yl}-N-(1,1-dioxo-2,3-dihydro-1lambda6-thiophen-3-yl)-N-[(2-methoxypyridin-4-yl)methyl]acetamide] | 0.5 to 5
COc1cc(CN(C(=O)C(C)n2cc(-c3ccc(F)cc3)cn2)[C@@H]2C=CS(=O)(=O)C2)ccn1 (stereo partly drawn) [I-137, N-[(3R)-1,1-dioxo-2,3-dihydro-1lambda6-thiophen-3-yl]-2-[4-(4-fluorophenyl)-1H-pyrazol-1-yl]-N-[(2-methoxypyridin-4-yl)methyl]propanamide] | 0.5 to 5

same assay, conditions: ADP-Glo_hWRN_IC50, 0.15 nM WRN, 5 μM ATP, 0.1 nM DNA duplex, 15 min preincubation, 60 min at 25° C., pH 7.5, 1% DMSO

IC50 [µM] | Compound
> 50 | O=C(CN1CC=C(c2ccccc2)CC1)N(c1ccccc1)C1C=CS(=O)(=O)C1 (centres unmarked) [I-430, N-(1,1-dioxo-2,3-dihydro-1lambda6-thiophen-3-yl)-N-phenyl-2-(4-phenyl-1,2,3,6-tetrahydropyridin-1-yl)acetamide]
